Where a name gives a salt, the structure may show the parent alone.
Key:
[1] = cited from earlier work
MPTP-lesioned marmoset [2] = assay: Parkinsonian disability (mobility score) in the MPTP-lesioned marmoset model of Parkinson's disease; type: in vivo, Marmosets (Callithrix jacchus); settings: Tofisopam 5-20 mg/kg oral with L-DOPA 15-17.5 mg/kg oral; mobility score 0-9, every 30 minutes for 4 hours; FIGS. 4 and 5
Method: The effect of Tofisopam on L-DOPA-induced dyskinesia was assessed in the MPTP-lesioned marmoset model of Parkinson's disease. 1.1.1 Preparation of MPTP-lesioned marmoset model of Parkinson's disease Marmosets (Callithrix jacchus) (bred in a closed colony at the University of Manchester) were rendered parkinsonian by subcutaneous injection of 2 mg kgl MPTP for 5 consecutive days. The marmosets were allowed to recover for a minimum of 10 weeks until their parkinsonism became stable. The degree of activity and disability before and after MPTP treatment was assessed using a combination of scales as described in section 1.1.2. Animals were then treated with L-DOPA for at least 3 weeks to prime them to elicit dyskinesia. […] The behavioural tests were assessed every 30 minutes for 4 hours, by post hoc analysis of video-recordings by an observer blinded to the treatment. […]

MPTP-lesioned marmoset [3] = assay: L-DOPA-induced dyskinesia score in the MPTP-lesioned marmoset model of Parkinson's disease; type: in vivo, Marmosets (Callithrix jacchus); settings: Tofisopam 5-20 mg/kg oral with L-DOPA 15-17.5 mg/kg oral; dyskinesia score 0-4, every 30 minutes for 4 hours; FIGS. 4 and 5
Method: The effect of Tofisopam on L-DOPA-induced dyskinesia was assessed in the MPTP-lesioned marmoset model of Parkinson's disease. 1.1.1 Preparation of MPTP-lesioned marmoset model of Parkinson's disease Marmosets (Callithrix jacchus) (bred in a closed colony at the University of Manchester) were rendered parkinsonian by subcutaneous injection of 2 mg kgl MPTP for 5 consecutive days. The marmosets were allowed to recover for a minimum of 10 weeks until their parkinsonism became stable. The degree of activity and disability before and after MPTP treatment was assessed using a combination of scales as described in section 1.1.2. Animals were then treated with L-DOPA for at least 3 weeks to prime them to elicit dyskinesia. (c) Dyskinesia—non-parametric measures based on the following scale: Dyskinesia score: 0=Absent, 1=Mild, fleeting, 2=Moderate, not interfering with normal activity, 3=Marked, at times interfering with normal activity, 4=Severe, continuous, replacing normal activity. The behavioural tests were assessed every 30 minutes for 4 hours, by post hoc analysis of video-recordings by an observer blinded to the treatment. Marmosets received all treatments as described in Table 1. The treatments were randomised such that on each day all marmosets received one of the treatments. There was at least 48 hours washout between treatments. [table]

SMILES | solubility in water [1] | solubility in alcohol ([1]; alcohol) | antiparkinsonian action of L-DOPA (parkinsonian disability) (MPTP-lesioned marmoset [2]) | severity of L-DOPA-induced dyskinesia (MPTP-lesioned marmoset [3])
CCN(CC)CCNC(=O)c1cc(Cl)c(N)cc1OC [Metoclopramide hydrochloride, 4-amino-5-chloro-N-[2-(diethylamino)ethyl]-2-methoxy benzamide monohydrochloride monohydrate] | freely soluble in water | – | – | –
N[C@@H](Cc1ccc(O)c(O)c1)C(=O)O [levodopa, (−)-3-(3,4-dihydroxy-phenyl)-L-alanine] | slightly soluble in water | insoluble in alcohol | – | –
CCC1C(C)=NN=C(c2ccc(OC)c(OC)c2)c2cc(OC)c(OC)cc21 (centres unmarked) [Tofisopam] | – | – | without affecting the antiparkinsonian action | reduces the severity of L-DOPA-induced dyskinesia

Reference: US20050261282A1, “Treatment of basal ganglia-related movement disorders with 2,3-benzodiazepines” (Motac Neuroscience Limited Williams House, priority 2002, published 2005)
